Experimental data: ChEMBL document CHEMBL5576101, “Discovery of 1,2,3-triazole-based pleuromutilin derivatives as potent gram-positive antibacterial agents” (2024)
Values after ≈ are worked out from the molar mass of the structure shown. Active and inactive are the calls of the source. The rule behind the calls is not given here.

Tests used:
Escherichia coli = test: Antibacterial activity against Escherichia coli by broth dilution method; type: functional
Staphylococcus aureus [1] = test: Antibacterial activity against Staphylococcus aureus by broth dilution method; type: functional
Enterococcus faecalis [2] = test: Antibacterial activity against Enterococcus faecalis by broth dilution method; type: functional
[3] = system: Staphylococcus epidermidis; test: Antibacterial activity against Staphylococcus epidermidis by broth dilution method; type: functional
Staphylococcus aureus [4] = test: Antibacterial activity against methicillin-resistant Staphylococcus aureus by broth dilution method; type: functional
[5] = system: Staphylococcus epidermidis; test: Bacteriostatic activity against Staphylococcus epidermidis assessed as reduction in bacterial growth at 1 times MIC measured after 24 hrs by time kill assay; type: functional, organism-based
Staphylococcus aureus [6] = test: Bacteriostatic activity against methicillin-resistant Staphylococcus aureus assessed as log reduction in viable cell count at 6 times MIC measured after 24 hrs by time kill assay; type: functional
Staphylococcus aureus [7] = test: Bacteriostatic activity against Staphylococcus aureus assessed as log reduction in viable cell count at 6 times MIC measured after 24 hrs by time kill assay; type: functional
Staphylococcus aureus [8] = test: Bacteriostatic activity against Staphylococcus aureus assessed as reduction in bacterial growth at 1 times MIC measured after 24 hrs by time kill assay; type: functional, organism-based
Staphylococcus aureus [9] = test: Bacteriostatic activity against methicillin-resistant Staphylococcus aureus assessed as reduction in bacterial growth at 1 times MIC measured after 24 hrs by time kill assay; type: functional, organism-based
[10] = system: Staphylococcus epidermidis; test: Bacteriostatic activity against Staphylococcus epidermidis assessed as log reduction in bacterial growth at 6 times MIC measured after 24 hrs by time kill assay; type: functional
Enterococcus faecalis [11] = test: Potency index, ratio of tiamulin MIC to test compound MIC for antibacterial activity Enterococcus faecalis by broth dilution method; type: functional
Staphylococcus aureus [12] = test: Potency index, ratio of tiamulin MIC to test compound MIC for antibacterial activity methicillin-resistant Staphylococcus aureus by broth dilution method; type: functional
[13] = system: Staphylococcus epidermidis; test: Potency index, ratio of tiamulin MIC to test compound MIC for antibacterial activity Staphylococcus epidermidis by broth dilution method; type: functional
Staphylococcus aureus [14] = test: Potency index, ratio of tiamulin MIC to test compound MIC for antibacterial activity Staphylococcus aureus by broth dilution method; type: functional
Staphylococcus aureus [15] = test: Bacteriostatic activity against Staphylococcus aureus assessed as log reduction in bacterial growth at 2 times MIC measured after 24 hrs by time kill assay; type: functional
Staphylococcus aureus [16] = test: Bacteriostatic activity against Staphylococcus aureus assessed as log reduction in bacterial growth at 4 times MIC measured after 24 hrs by time kill assay; type: functional

Row | SMILES | MIC (Escherichia coli) [µg/mL] | MIC (Staphylococcus aureus [1]) [µg/mL] | MIC (Enterococcus faecalis [2]) [µg/mL] | MIC [3] [µg/mL] | MIC (Staphylococcus aureus [4]) [µg/mL] | Activity [5] | log(activity) (Staphylococcus aureus [6]) | log(activity) (Staphylococcus aureus [7]) | Activity (Staphylococcus aureus [8]) | Activity (Staphylococcus aureus [9]) | log(activity) [10] | Ratio (Enterococcus faecalis [11]) | Ratio (Staphylococcus aureus [12]) | Ratio [13] | Ratio (Staphylococcus aureus [14]) | log(activity) (Staphylococcus aureus [15]) | log(activity) (Staphylococcus aureus [16])
1 | C=C[C@]1(C)C[C@@H](OC(=O)CSC(C)(C)CNC(=O)Cn2cc(CNc3ccc(CCCCCC)cc3)nn2)[C@]2(C)[C@H](C)CC[C@]3(CCC(=O)[C@H]32)[C@@H](C)[C@@H]1O | > 64 | 32 (≈ 41.9 µM) | > 64 | 2 (≈ 2.62 µM) | 8 (≈ 10.5 µM) | – | – | – | – | – | – | – | – | – | – | – | –
2 | C=C[C@]1(C)C[C@@H](OC(=O)CSC(C)(C)CNC(=O)Cn2cc(CNc3ccc(OC)cc3)nn2)[C@]2(C)[C@H](C)CC[C@]3(CCC(=O)[C@H]32)[C@@H](C)[C@@H]1O | > 64 | 4 (≈ 5.63 µM) | 64 (≈ 90.1 µM) | 2 (≈ 2.82 µM) | 4 (≈ 5.63 µM) | – | – | – | – | – | – | – | – | – | – | – | –
3 | C=C[C@]1(C)C[C@@H](OC(=O)CSC(C)(C)CNC(=O)Cn2cc(CNc3ccc(Cl)cc3)nn2)[C@]2(C)[C@H](C)CC[C@]3(CCC(=O)[C@H]32)[C@@H](C)[C@@H]1O | > 64 | 2 (≈ 2.8 µM) | 64 (≈ 89.6 µM) | 8 (≈ 11.2 µM) | 8 (≈ 11.2 µM) | – | – | – | – | – | – | – | – | – | – | – | –
4 | C=C[C@]1(C)C[C@@H](OC(=O)CSC(C)(C)CNC(=O)Cn2cc(Cc3ccccc3)nn2)[C@]2(C)[C@H](C)CC[C@]3(CCC(=O)[C@H]32)[C@@H](C)[C@@H]1O | > 64 | 16 (≈ 24.1 µM) | 64 (≈ 96.3 µM) | 4 (≈ 6.02 µM) | 4 (≈ 6.02 µM) | – | – | – | – | – | – | – | – | – | – | – | –
5 | C=C[C@]1(C)C[C@@H](OC(=O)CSC(C)(C)CNC(=O)Cn2cc(CNc3ccc(CCC)cc3)nn2)[C@]2(C)[C@H](C)CC[C@]3(CCC(=O)[C@H]32)[C@@H](C)[C@@H]1O | > 64 | 32 (≈ 44.3 µM) | > 64 | 16 (≈ 22.2 µM) | 4 (≈ 5.54 µM) | – | – | – | – | – | – | – | – | – | – | – | –
6 | C=C[C@]1(C)C[C@@H](OC(=O)CSCCN(CC)CC)[C@]2(C)[C@H](C)CC[C@]3(CCC(=O)[C@H]32)[C@@H](C)[C@@H]1O [TIAMULIN] | > 64 | 4 (≈ 8.1 µM) | 32 (≈ 64.8 µM) | 0.5 (≈ 1.01 µM) | 0.25 (≈ 0.506 µM) | – | – | – | – | – | – | – | – | – | – | – | –
7 | C=C[C@]1(C)C[C@@H](OC(=O)CSC(C)(C)CNC(=O)Cn2cc(CNc3ccc(C)cc3)nn2)[C@]2(C)[C@H](C)CC[C@]3(CCC(=O)[C@H]32)[C@@H](C)[C@@H]1O | > 64 | 16 (≈ 23.1 µM) | 64 (≈ 92.2 µM) | 2 (≈ 2.88 µM) | 16 (≈ 23.1 µM) | – | – | – | – | – | – | – | – | – | – | – | –
8 | C=C[C@]1(C)C[C@@H](OC(=O)CSC(C)(C)CNC(=O)Cn2cc(COc3ccc(C)cc3)nn2)[C@]2(C)[C@H](C)CC[C@]3(CCC(=O)[C@H]32)[C@@H](C)[C@@H]1O | > 64 | > 64 | 16 (≈ 23 µM) | 0.062 (≈ 0.0892 µM) | 0.062 (≈ 0.0892 µM) | – | – | – | – | – | – | – | – | – | – | – | –
9 | C=C[C@]1(C)C[C@@H](OC(=O)CSC(C)(C)CNC(=O)Cn2cc(Cc3cccc(N)c3)nn2)[C@]2(C)[C@H](C)CC[C@]3(CCC(=O)[C@H]32)[C@@H](C)[C@@H]1O | > 64 | > 64 | > 64 | 0.062 (≈ 0.0912 µM) | 0.062 (≈ 0.0912 µM) | Active | 4.3 | 4.1 | Active | Active | – | – | – | – | – | – | –
10 | C=C[C@]1(C)C[C@@H](OC(=O)CSC(C)(C)CNC(=O)Cn2cc(CNc3ccc([N+](=O)[O-])cc3)nn2)[C@]2(C)[C@H](C)CC[C@]3(CCC(=O)[C@H]32)[C@@H](C)[C@@H]1O | > 64 | 64 (≈ 88.3 µM) | 2 (≈ 2.76 µM) | 0.125 (≈ 0.172 µM) | 0.25 (≈ 0.345 µM) | Active | – | – | Active | Active | 4.4 | – | – | – | – | – | –
11 | C=C[C@]1(C)C[C@@H](OC(=O)CSC(C)(C)CNC(=O)Cn2cc(Cc3ccc(OC)cc3)nn2)[C@]2(C)[C@H](C)CC[C@]3(CCC(=O)[C@H]32)[C@@H](C)[C@@H]1O | > 64 | 0.5 (≈ 0.719 µM) | 1 (≈ 1.44 µM) | 0.5 (≈ 0.719 µM) | > 64 | – | – | – | – | – | – | – | – | – | – | – | –
12 | C=C[C@]1(C)C[C@@H](OC(=O)CSC(C)(C)CNC(=O)Cn2cc(COc3ccccc3)nn2)[C@]2(C)[C@H](C)CC[C@]3(CCC(=O)[C@H]32)[C@@H](C)[C@@H]1O | > 64 | 64 (≈ 94 µM) | 16 (≈ 23.5 µM) | 8 (≈ 11.7 µM) | 8 (≈ 11.7 µM) | – | – | – | – | – | – | – | – | – | – | – | –
13 | C=C[C@]1(C)C[C@@H](OC(=O)CSC(C)(C)CNC(=O)Cn2cc(COc3ccc([N+](=O)[O-])cc3)nn2)[C@]2(C)[C@H](C)CC[C@]3(CCC(=O)[C@H]32)[C@@H](C)[C@@H]1O | > 64 | 4 (≈ 5.51 µM) | 64 (≈ 88.2 µM) | 1 (≈ 1.38 µM) | 4 (≈ 5.51 µM) | – | – | – | – | – | – | – | – | – | – | – | –
14 | C=C[C@]1(C)C[C@@H](OC(=O)CSC(C)(C)CNC(=O)Cn2cc(CC3CC3)nn2)[C@]2(C)[C@H](C)CC[C@]3(CCC(=O)[C@H]32)[C@@H](C)[C@@H]1O | > 64 | 4 (≈ 6.36 µM) | 64 (≈ 102 µM) | 0.5 (≈ 0.795 µM) | 8 (≈ 12.7 µM) | – | – | – | – | – | – | – | – | – | – | – | –
15 | C=C[C@]1(C)C[C@@H](OC(=O)CSC(C)(C)CNC(=O)Cn2cc(CNc3ccc(OCCCCCC)cc3)nn2)[C@]2(C)[C@H](C)CC[C@]3(CCC(=O)[C@H]32)[C@@H](C)[C@@H]1O | > 64 | > 64 | 0.062 (≈ 0.0795 µM) | 0.5 (≈ 0.641 µM) | 16 (≈ 20.5 µM) | – | – | – | – | – | – | – | – | – | – | – | –
16 | C=C[C@]1(C)C[C@@H](OC(=O)CSC(C)(C)CNC(=O)Cn2cc(COc3ccc([N+](=O)[O-])cc3[N+](=O)[O-])nn2)[C@]2(C)[C@H](C)CC[C@]3(CCC(=O)[C@H]32)[C@@H](C)[C@@H]1O | > 64 | 0.062 (≈ 0.0804 µM) | 0.25 (≈ 0.324 µM) | 0.062 (≈ 0.0804 µM) | 0.062 (≈ 0.0804 µM) | Active | 4.3 | 4.1 | Active | Active | – | 128 | 4 | 8 | 64 | 1.98 | 3.38
17 | C=C[C@]1(C)C[C@@H](OC(=O)CSC(C)(C)CNC(=O)Cn2cc(Cc3cccnc3)nn2)[C@]2(C)[C@H](C)CC[C@]3(CCC(=O)[C@H]32)[C@@H](C)[C@@H]1O | > 64 | 16 (≈ 24 µM) | 0.062 (≈ 0.0931 µM) | 0.25 (≈ 0.375 µM) | 2 (≈ 3 µM) | – | – | – | – | – | – | – | – | – | – | – | –
18 | C=C[C@]1(C)C[C@@H](OC(=O)CSC(C)(C)CNC(=O)Cn2cc(CNc3ccc(Br)cc3)nn2)[C@]2(C)[C@H](C)CC[C@]3(CCC(=O)[C@H]32)[C@@H](C)[C@@H]1O | > 64 | > 64 | > 64 | 16 (≈ 21.1 µM) | 64 (≈ 84.3 µM) | – | – | – | – | – | – | – | – | – | – | – | –
